Source: patent US8039670B2, “Analogs of alpha galactosyceramide and uses thereof” (Ludwig Institute for Cancer Research, priority 2005, dated 2011)

Legend:
DC = test: Viability of analog-pulsed DC co-cultured with iNKT cells (propidium iodide); type: cell-based, human; details: at concentration of maximal DC maturation
Procedure: (§1) Different analogs of α-GalCer as indicated or LPS were added to co-cultures of human DC and iNKT cells. (A) Maturation of the DC was assessed after 40 h, gating on CD11c positive cells. Histograms indicate the CD83 and CD86 profiles of DC from different treatments; the percentages indicate the percentage of CD83hi mature DC and the numbers in parenthesis, the mean fluorescence intensity of the population contained within the labeled gate. DC and iNKT cells were co-cultured in the presence of different analogs of α-GalCer for 24 hours. Supernatants were analyzed using ELISA for the presence of (B) IL-12p40 released by the DC and (C) IFN-γ from the iNKT cells. All the compounds tested induced weaker but significant cytokine production than α-GalCer, with the exception of arabinitolceramide. (D) Titration of α-GalCer, OCH or threitolceramide on DCs and co-culture with iNKT cells induces DC maturation in vitro. Cells were co-cultured in the presence of the indicated concentration of analog and the percentages of DC with increased CD83/CD80 are shown. […] Viability of α-GalCer or analog-pulsed DC was assessed after 40 h co-culture in the presence of iNKT cells by flow cytometry. Cells were stained with propidium iodide and the percentage of live CD11c gated cells remaining in the culture are shown.
(§2) To compare the functions of high affinity α-GalCer, intermediate affinity threitolceramide with the known, low affinity analog OCH, the three compounds were titrated onto DC and used to present to iNKT cells. Maturation of DC and DC viability were examined after 48 h.

human DC = test: DC maturation in co-culture of human DC and iNKT cells (flow cytometry CD83, CD86, CD38); type: cell-based; details: titration on DC, 48 h
Procedure: as §1, with “All the compounds tested induced weaker but significant cytokine production than α-GalCer, with the exception of arabinitolceramide. (D) Titration of α-GalCer, OCH or threitolceramide on DCs and co-culture with iNKT cells induces DC maturation in vitro.” left out
Human monocyte-derived DC were pulsed with 150 ng of different inositol analogs and co-cultured with iNKT cells for 24 h. […] Numbers indicate the mean fluorescence intensity of the histogram gated on CD11c^+ cells.
Immature human DC were cultured in the presence of a human iNKT cell clone with or without analogs or vehicle at different concentrations.
as §2

human CD1d molecules = target: T1, human CD1d molecules (Homo sapiens, UniProt P15813); test: Dissociation of ligand from hCD1d, surface plasmon resonance with 9B Fab; type: binding; details: fold faster than α-GalCer
T1 construct: soluble human CD1d molecules; biotin (biotinylated); made in house
Excerpt: FIG. 1 Comparison of dissociation rate of OCH and α-GalCer. Dissociation of ligand from hCD1d. The indicated hCD1d (α-Gal Cer or OCH) complex was loaded onto a Surface Plasmon resonance (Biacore) sensor surface at t=0 and the amount of hCD1d remaining at the indicated time point measured using the Fab 9B.
Using the 9B Fab we looked at the rate of dissociation of all the tested compounds from soluble human CD1d molecules using surface plasmon resonance. Biotinylated CD1d-lipid complexes were immobilized to streptavidin-coated chips and the level of binding of the 9B Fab was measured over time. The loss of binding of the antibody over time was used to determine the rate of lipid dissociation from CD1d molecules.

rate of dissociation from hCD1d relative to α-GalCer (human CD1d molecules): 3.9 fold
Structure (SMILES): CCCCCCCCCCCCCCCCCCCCCCCC(=O)N[C@@H](CO[C@H]1O[C@H](CO)[C@H](O)[C@H](O)[C@H]1O)[C@H](O)[C@H](O)CCCCC [OCH, (2S,3S,4R)-1-O-(α-D-galactopyranosyl)-N-tetracosanoyl-2-amino-1,3,4-nonanetriol]
DC viability (propidium iodide negative) compared with α-GalCer (DC): significantly greater proportion of DC were propidium iodide negative | concentration inducing maximal DC maturation (human DC): 67 ng/mL
